# In BindingDB's records for doi:10.1016/j.bmcl.2019.126899 (Sanford Burnham Prebys Medical Discovery Institute, 2020):
# Assay: Inhibition of CXCR6-mediated cell invasion in human SKHEP1 cells after 72 hrs by transwell assay
structure (smiles),measurement,value
COc1cc(C(=O)N[C@@H]2C[C@H]3CCC[C@@H](C2)N3Cc2nc3c(C(F)(F)F)cccc3s2)cc(OC)c1OC,IC50,2100 nM
